1 molecule from patent US12629356B2, “Expansion of tumor infiltrating lymphocytes with potassium channel agonists and therapeutic uses thereof” (Iovance Biotherapeutics, Inc., priority 2017, dated 2026) can be followed below.

Assay [1] has as its system normal donor PBMC lines and TIL lines from melanoma tumors. In words: Kinetic expression of KCa3.1 after activation with anti-CD3 and anti-CD28 with or without SKA-31 (flow cytometry). The format is cell-based, human. To be noted: 50 nM SKA-31; PBMCs and melanoma TILs stimulated with anti-CD3 and anti-CD28; day 1, 3 and 7. How it is done:
To study kinetic expression of KCa3.1, wo normal donor PBMC lines and three TIL lines from melanoma tumors were activated with anti-CD3 and anti-CD28 with the KCa3.1 agonist SKA-31 (Formula (2)). PBMCs and TILs at day 0 (baseline) were used as controls for KCa3.1 expression. Normal donor PBMCs and three TIL lines (M004, M10^11, and M1023) were thawed and cultured in TIL culture media (TIL CM) containing RPMI 1640 (Thermo Fisher Scientific, Waltham, MA, USA), 1 mM Glutamax (Thermo Fisher Scientific), 1 mM pyruvate (Thermo Fisher Scientific), 50 μM 2-mercaptoethanol (Thermo Fisher Scientific), and 1× Pen-Strep (Thermo Fisher Scientific), and 10% human AB serum (Gemini Bio-Products, West Sacramento, CA, USA) with IL-2 (6000 IU/mL) (CellGenix Inc., Portsmouth, NH, USA). On the next day, PBMCs were activated with anti-CD3 (Clone CLB-T3/4.E, Cell Sciences) ([…]) and anti-CD28 (Clone 28.2, BioLegend, San Diego, CA, USA) (500 ng/mL) with or without 50 nM SKA-31 (Sigma-Aldrich Co., St. Louis, MO, USA). […] Cells were harvested on day 1, 3, and 7 following activation, stained with anti-CD3 (clone SP34-2, BD Biosciences), anti-CD8 (clone RPA-T8, BioLegend), anti-KCa3.1 (Polyclonal, Alomone Lab), and AmCyan (Thermo Fisher Scientific), and analyzed by flow cytometry using a BD FACS CANTO II system.
For orientation: In flow cytometry, cells or beads pass a laser one at a time.

Assay [2] deals with Melanoma TIL lines. Put plainly: Fold expansion of melanoma TIL lines in 14-day REP with or without SKA-31. The assay is classed as cell-based, human. To be noted: ten melanoma TIL lines; 50 mM SKA-31 (so in the source); day 14 of REP; p=0.002. Here is the method:
(§1) Melanoma TIL lines were propagated using a REP protocol for 14 days with or without the KCa3.1 agonist SKA-31 (Formula (2)). Ten TIL lines (M004, M10^11, M1017, M1020, M1021, M1025, M1030, M1034, M1036, and M1045) were propagated with REP with anti-CD3 OKT-3 antibody (Miltenyi Biotech) (30 ng/mL) using irradiated PBMC feeder cells at ratio of TILs to feeder cells of 1 to 100 in G-REX 24 well plates (Wilson Wolf Manufacturing). Approximately 1×10^6 TILs were used per G-REX 24 well on day 0 in 8 mL of TIL REP media (TIL CM and Aim V media (Thermo Fisher Scientific) at a 1 to 1 ratio) with or without 50 mM of SKA-31. On day 2, the cultures were supplemented with IL-2 (6000 IU/mL). Half of the media was replaced with fresh AIMV media on day 5 with or without 50 mM SKA-31. The REP cultures were supplemented with IL-2 (3000 IU/mL) on day 9 and 12 respectively. On day 14, TTLs were counted and calculated for fold expansion.

Assay [3] concerns Melanoma TIL lines. Put plainly: Phenotyping of melanoma TILs (CD27, CD28) at end of REP with or without SKA-31. The assay is classed as cell-based, human. The conditions noted are these: ten melanoma TIL lines, end of 14-day REP, vs TILs without SKA-31. Here is the method: as §1
Ten melanoma TIL lines were expanded with the REP protocol for 14 days with or without the KCa3.1 agonist SKA-31 (Formula (2)) as in Example 2. At the end of each REP, TILs were harvested and phenotyped with anti-CD3 (clone SP34-2, BD Biosciences), anti-CD28 (clone CD28.2, BD biosciences), and anti-CD27 (M-T271, BD Biosciences) antibodies.

For assay [4], the system named is pre-REP TILs from tumor fragments. Put plainly: CCR7+ and CD25+ expression in pre-REP TILs grown with IL-2 alone or IL-2 with SKA-31 (flow cytometry). The format is cell-based. The conditions noted are these: vs no treatment. How it is done:
Three tumors (kidney, estrogen receptor positive (ER^+) breast, and melanoma) were grown with either IL-2 alone or IL-2 with SKA-31 […] to evaluate the performance of a KCa3.1 agonist in the pre-REP stage. The resected tumor samples were cut into 3-5 mm^2 fragments. Four to eight tumor fragments were placed into GREX-10 flask containing TIL CM (previously described) with IL-2 (6000 IU/mL) with or without 100 nM SKA-31. The culture was supplemented with IL-2 every 5 days until harvested. After three weeks, TIL was collected, counted, and stained with anti-CD8 (clone RPA-T8, BioLegend), anti-CD4 (OKT-4, BioLegend), anti-CCR7 (BioLegend G043H7), or AmCyan (Thermo Fisher Scientific), and analyzed by flow cytometry using a BD FACS CANTO II system. The results of CCR7 expression in the three tumor fragments are presented in FIG. 13, with representative flow cytometry results for one of the tumors presented in FIG. 14.
Further evidence that SKA-31 enhances expression of CD25 and CCR7 was also obtained. Pre-REP TIL were grown with either IL-2 (6000 IU/mL) alone or with SKA-31 and were analyzed after 21 days (n=14; tumor types: breast cancer (8), melanoma (3), kidney (2), ovarian (1)). CCR7^+ expression was assessed by flow cytometry in CD4^+ (FIG. 15, top) and CD8^+subsets (FIG. 15, bottom). CD25^+expression was assessed by flow cytometry in CD4^+(FIG. 17, top) and CD8′ subsets (FIG. 17, bottom) (n=16, breast cancer (8), melanoma (3), kidney (3), ovarian (2)). In both cases, p values represent the difference between no treatment and SKA-31 using student's unpaired T test, and p values<0.05 are considered as statistically significant.

In assay [5] the test system is pre-REP TILs from ovarian and breast cancer tumor fragments. In words: Absolute cell counts of pre-REP TILs from ovarian and breast tumor fragments with or without SKA-31. The format is cell-based. The conditions noted are these: 50 nM SKA-31 with IL-2, three weeks, vs IL-2 alone. Here is the method:
Tumor fragments from ovarian and breast cancer (triple positive, ER^+/PR^+/HER2^+) tumors were grown in a pre-REP stage with either IL-2 alone or IL-2 with SKA-31 (Formula (2)) at a concentration of 50 nM. The resected tumor samples were cut into 3-5 mm^2 fragments. Four to eight tumor fragments were placed into GREX-10 flasks containing TIL CM (previously described) with IL-2 (6000 IU/mL). The culture was supplemented with IL-2 every 5 days until harvested. After three weeks, TILs were collected, counted, and stained with anti-CD8 antibody (clone RPA-T8, BioLegend), anti-CD4 antibody (OKT-4, BioLegend), anti-CD3 antibody (clone SP34-2, BD Biosciences), and AmCyan (Thermo Fisher Scientific), and analyzed by flow cytometry using a BD FACS CANTO II system.

Assay [6] relates to TILs co-cultured with melanoma tumor cells. In words: IFN-γ release (ELISA) from TILs prepared with and without SKA-31 co-cultured with melanoma tumor cells. The assay is classed as cell-based. The conditions noted are these: 24 hours co-culture, 3:1 E:T ratio, vs TILs prepared without SKA-31. Here is the method:
FIG. 21 illustrates the results of IFN-γ release as measured by enzyme-linked immunosorbent assay (ELISA). TILs prepared with and without SKA-31 were co-cultured with melanoma tumor cells for 24 hours at a TIL:melanoma cell ratio of 3:1 (i.e., a 3:1 effector:target or E:T ratio). Blocking of the TCR MHC-I was performed using 80 μg/mL of antibody clone W6/32 (BioLegend).
A general note: In an ELISA, binding on a coated surface is turned into a signal by an enzyme label.

In assay [7] the test system is melanoma cells. In words: Tumor cell killing by TILs prepared with and without SKA-31 (caspase-3 marker). The format is cell-based. To be noted: different E:T ratios.
Setting [8] is: breast (ER+/PR+/HER2+) tumor fragments.

Take `Nc1nc2c(ccc3ccccc32)s1` [SKA-31, naphtho[1,2-d]thiazol-2-ylamine]: in assay [1], the KCa3.1 expression entry was “did not alter KCa3.1 expression”. Also, the “expansion of TILs in REP relative to control without KCa3.1 agonist” value in assay [2] amounted to 1.42 fold. Besides, the “CD8+CD27+CD28+ T cell subset” value in assay [3] (p=0.002) is listed as “greater expansion”. Further, the “CD8+CD27+ T cell subset” value in assay [3] (p=0.04) is “greater expansion”. Further, the “CD8+CD28+ T cell subset” value in assay [3] (p=0.04) was “greater expansion”. Also, the “CCR7+ expression in CD4+ and CD8+ subsets” value in assay [4] (pre-REP TIL, IL-2 6000 IU/mL with SKA-31, 21 days, n=14 tumors) is reported as “enhances”. In addition, the “CD25+ expression in CD4+ and CD8+ subsets” value in assay [4] (pre-REP TIL, IL-2 6000 IU/mL with SKA-31, 21 days, n=16 tumors) is reported as “enhances”. The “CCR7+ expression in CD4+ and CD8+ TILs” value in assay [4] (three tumor fragments (kidney, ER+ breast, melanoma), pre-REP, 100 nM SKA-31 with IL-2, three weeks) is given as “increased”. In assay [5] (setting [8]), the “absolute cell counts, CD3^mCD4^m TILs” value is reported as “increased”. Moreover, the “absolute cell counts, CD3^mCD8^m TILs” value in assay [5] (setting [8]) and in assay [5] (ovarian tumor fragments) was “increased” throughout. The IFN-γ release entry is given as “statistically significant increase” in assay [6] (one TIL cell line) and “no adverse effect” in assay [6] (second TIL cell line). Also, the “tumor killing (caspase-3)” value in assay [7] (M1032 TIL line) and in assay [7] (M1041 TIL line) was “no adverse effects” in each case.
